From ChEMBL document CHEMBL4364318, “Targeting multiple myeloma with natural polyphenols” (Eur J Med Chem, 2019) come the findings set out here.

The test system of one assay is RPMI-8226. Nature of the assay: Induction of apoptosis in human RPMI8226 cells at 10 to 20 uM by TUNEL assay relative to control. The format is functional.
The test system of another assay is U-266. Nature of the assay: Induction of nitric oxide production in human U266 cells. It counts as functional, cell-based.

pIC50: −log10 of the molar value. Some results are limits rather than exact numbers.

Usually pIC50 stands for the negative decadic logarithm of the IC50, by convention in mol/L. High values mean a low IC50, low ones a high IC50. In the assay on RPMI-8226, `O=C(O[C@@H]1Cc2c(O)cc(O)cc2O[C@@H]1c1cc(O)c(O)c(O)c1)c1cc(O)c(O)c(O)c1` [EPIGALOCATECHIN GALLATE] came in with an Activity of more than 100%. In the assay with U-266, this compound gave a pIC50 of 4.63.
